Columns and labels:
Assay in all cases: KINOMEscan competition binding
Conditions in all cases: compound 10.0 µM
ACVR1 (human) = ACVR1 (human) (UniProt Q04771)
ANKK1 (human) = ANKK1 (human) (UniProt Q8NFD2)
BRSK1 (human) = BRSK1 (human) (UniProt Q8TDC3)
CASK (human) = CASK (human) (UniProt O14936)
CDKL3 (human) = CDKL3 (human) (UniProt Q8IVW4)
CSNK1E (human) = CSNK1E (human) (UniProt P49674)
DDR1 (human) = DDR1 (human) (UniProt Q08345)
DMPK (human) = DMPK (human) (UniProt Q09013)
EIF2AK1 (human) = EIF2AK1 (human) (UniProt Q9BQI3)
EIF2AK2 (human) = EIF2AK2 (human) (UniProt P19525)
ERBB3 (human) = ERBB3 (human) (UniProt P21860)
FGFR3 (human) = FGFR3 (human) (UniProt P22607)
IKBKB (human) = IKBKB (human) (UniProt O14920)
INSR (human) = INSR (human) (UniProt P06213)
IRAK1 (human) = IRAK1 (human) (UniProt P51617)
ITK (human) = ITK (human) (UniProt Q08881)
KDR (human) = KDR (human) (UniProt P35968)
LATS1 (human) = LATS1 (human) (UniProt O95835)
LIMK2 (human) = LIMK2 (human) (UniProt P53671)
MAP3K12 (human) = MAP3K12 (human) (UniProt Q12852)
MAPK3 (human) = MAPK3 (human) (UniProt P27361)
MARK4 (human) = MARK4 (human) (UniProt Q96L34)
MATK (human) = MATK (human) (UniProt P42679)
MKNK1 (human) = MKNK1 (human) (UniProt Q9BUB5)
NEK3 (human) = NEK3 (human) (UniProt P51956)
NEK4 (human) = NEK4 (human) (UniProt P51957)
NEK9 (human) = NEK9 (human) (UniProt Q8TD19)
PAK1 (human) = PAK1 (human) (UniProt Q13153)
PAK4 (human) = PAK4 (human) (UniProt O96013)
PIP5K1A (human) = PIP5K1A (human) (UniProt Q99755)
ROCK1 (human) = ROCK1 (human) (UniProt Q13464)
RPS6KB1 (human) = RPS6KB1 (human) (UniProt P23443)
SBK1 (human) = SBK1 (human) (UniProt Q52WX2)
SRC (human) = SRC (human) (UniProt P12931)
STK11 (human) = STK11 (human) (UniProt Q15831)
STK3 (human) = STK3 (human) (UniProt Q13188)
STK35 (human) = STK35 (human) (UniProt Q8TDR2)
STK38 (human) = STK38 (human) (UniProt Q15208)
TAOK3 (human) = TAOK3 (human) (UniProt Q9H2K8)
TNK1 (human) = TNK1 (human) (UniProt Q13470)
VRK2 (human) = VRK2 (human) (UniProt Q86Y07)

Chain of MAP3K12 (human) (Q12852 whole entry, looked up): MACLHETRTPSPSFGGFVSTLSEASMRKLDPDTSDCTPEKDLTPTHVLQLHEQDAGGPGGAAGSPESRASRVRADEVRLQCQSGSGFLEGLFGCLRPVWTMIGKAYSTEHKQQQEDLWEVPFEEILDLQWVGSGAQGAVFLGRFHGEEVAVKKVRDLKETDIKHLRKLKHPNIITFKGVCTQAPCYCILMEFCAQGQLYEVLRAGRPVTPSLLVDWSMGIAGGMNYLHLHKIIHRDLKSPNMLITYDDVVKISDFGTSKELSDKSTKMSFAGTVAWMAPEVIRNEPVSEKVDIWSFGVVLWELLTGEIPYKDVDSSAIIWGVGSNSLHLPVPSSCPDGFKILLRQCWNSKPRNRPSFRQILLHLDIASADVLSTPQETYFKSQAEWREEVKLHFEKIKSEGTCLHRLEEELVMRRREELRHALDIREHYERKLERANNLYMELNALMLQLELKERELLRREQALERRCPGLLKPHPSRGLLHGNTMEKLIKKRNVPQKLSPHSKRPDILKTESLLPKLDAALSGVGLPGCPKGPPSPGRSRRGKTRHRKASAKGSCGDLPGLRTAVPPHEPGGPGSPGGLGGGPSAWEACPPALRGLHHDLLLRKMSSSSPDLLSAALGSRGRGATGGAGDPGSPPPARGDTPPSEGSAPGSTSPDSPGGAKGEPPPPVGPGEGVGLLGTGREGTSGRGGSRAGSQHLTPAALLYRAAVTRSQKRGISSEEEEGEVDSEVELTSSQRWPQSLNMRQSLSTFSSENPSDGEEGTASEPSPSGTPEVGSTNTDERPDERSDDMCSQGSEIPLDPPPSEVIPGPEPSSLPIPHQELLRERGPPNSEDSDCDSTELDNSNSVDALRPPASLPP
Chain of SBK1 (human) (Q52WX2 whole entry, looked up): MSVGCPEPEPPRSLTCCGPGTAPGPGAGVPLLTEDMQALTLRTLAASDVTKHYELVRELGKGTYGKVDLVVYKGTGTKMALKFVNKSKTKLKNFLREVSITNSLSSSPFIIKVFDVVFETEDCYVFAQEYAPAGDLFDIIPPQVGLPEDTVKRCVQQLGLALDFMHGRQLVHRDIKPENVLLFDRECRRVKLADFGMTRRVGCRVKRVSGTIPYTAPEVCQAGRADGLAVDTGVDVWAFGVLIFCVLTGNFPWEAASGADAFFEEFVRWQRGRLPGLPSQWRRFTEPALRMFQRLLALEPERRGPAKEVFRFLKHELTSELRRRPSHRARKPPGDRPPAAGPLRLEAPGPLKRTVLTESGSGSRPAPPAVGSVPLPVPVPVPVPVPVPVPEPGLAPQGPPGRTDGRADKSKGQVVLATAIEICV
Chain of EIF2AK1 (human) (Q9BQI3 whole entry, looked up): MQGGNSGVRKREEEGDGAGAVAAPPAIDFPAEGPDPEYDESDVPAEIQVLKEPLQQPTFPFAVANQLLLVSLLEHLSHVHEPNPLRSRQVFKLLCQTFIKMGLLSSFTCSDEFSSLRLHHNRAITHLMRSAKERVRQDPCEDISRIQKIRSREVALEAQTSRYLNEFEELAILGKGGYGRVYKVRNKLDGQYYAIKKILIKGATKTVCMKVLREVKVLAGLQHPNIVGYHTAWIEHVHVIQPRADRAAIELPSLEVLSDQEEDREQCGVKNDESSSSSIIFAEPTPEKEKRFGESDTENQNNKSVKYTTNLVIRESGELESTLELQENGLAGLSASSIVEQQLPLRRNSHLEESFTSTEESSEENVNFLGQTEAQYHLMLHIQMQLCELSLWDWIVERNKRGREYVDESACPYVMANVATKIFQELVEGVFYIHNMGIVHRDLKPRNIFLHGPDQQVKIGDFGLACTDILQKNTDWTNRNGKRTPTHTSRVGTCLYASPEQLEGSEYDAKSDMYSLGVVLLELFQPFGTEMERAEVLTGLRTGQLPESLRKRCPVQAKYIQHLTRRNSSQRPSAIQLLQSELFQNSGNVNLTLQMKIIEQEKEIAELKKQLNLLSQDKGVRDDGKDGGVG
Chain of ITK (human) (Q08881 whole entry, looked up): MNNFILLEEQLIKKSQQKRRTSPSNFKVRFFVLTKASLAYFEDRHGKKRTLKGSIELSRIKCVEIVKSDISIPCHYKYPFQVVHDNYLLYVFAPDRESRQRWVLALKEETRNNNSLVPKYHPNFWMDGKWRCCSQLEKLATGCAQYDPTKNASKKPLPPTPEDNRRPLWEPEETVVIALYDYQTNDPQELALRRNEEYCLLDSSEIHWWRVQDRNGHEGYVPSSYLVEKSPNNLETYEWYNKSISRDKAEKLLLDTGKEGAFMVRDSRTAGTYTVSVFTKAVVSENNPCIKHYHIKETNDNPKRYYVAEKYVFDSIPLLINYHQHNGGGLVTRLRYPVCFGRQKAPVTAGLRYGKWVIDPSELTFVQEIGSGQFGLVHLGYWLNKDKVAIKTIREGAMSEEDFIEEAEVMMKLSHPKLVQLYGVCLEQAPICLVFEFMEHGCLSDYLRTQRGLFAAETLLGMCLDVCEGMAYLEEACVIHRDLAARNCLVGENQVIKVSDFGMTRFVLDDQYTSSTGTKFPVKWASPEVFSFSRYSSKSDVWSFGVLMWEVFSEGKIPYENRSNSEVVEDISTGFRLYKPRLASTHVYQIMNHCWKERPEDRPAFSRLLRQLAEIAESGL
Chain of CASK (human) (O14936 whole entry, looked up): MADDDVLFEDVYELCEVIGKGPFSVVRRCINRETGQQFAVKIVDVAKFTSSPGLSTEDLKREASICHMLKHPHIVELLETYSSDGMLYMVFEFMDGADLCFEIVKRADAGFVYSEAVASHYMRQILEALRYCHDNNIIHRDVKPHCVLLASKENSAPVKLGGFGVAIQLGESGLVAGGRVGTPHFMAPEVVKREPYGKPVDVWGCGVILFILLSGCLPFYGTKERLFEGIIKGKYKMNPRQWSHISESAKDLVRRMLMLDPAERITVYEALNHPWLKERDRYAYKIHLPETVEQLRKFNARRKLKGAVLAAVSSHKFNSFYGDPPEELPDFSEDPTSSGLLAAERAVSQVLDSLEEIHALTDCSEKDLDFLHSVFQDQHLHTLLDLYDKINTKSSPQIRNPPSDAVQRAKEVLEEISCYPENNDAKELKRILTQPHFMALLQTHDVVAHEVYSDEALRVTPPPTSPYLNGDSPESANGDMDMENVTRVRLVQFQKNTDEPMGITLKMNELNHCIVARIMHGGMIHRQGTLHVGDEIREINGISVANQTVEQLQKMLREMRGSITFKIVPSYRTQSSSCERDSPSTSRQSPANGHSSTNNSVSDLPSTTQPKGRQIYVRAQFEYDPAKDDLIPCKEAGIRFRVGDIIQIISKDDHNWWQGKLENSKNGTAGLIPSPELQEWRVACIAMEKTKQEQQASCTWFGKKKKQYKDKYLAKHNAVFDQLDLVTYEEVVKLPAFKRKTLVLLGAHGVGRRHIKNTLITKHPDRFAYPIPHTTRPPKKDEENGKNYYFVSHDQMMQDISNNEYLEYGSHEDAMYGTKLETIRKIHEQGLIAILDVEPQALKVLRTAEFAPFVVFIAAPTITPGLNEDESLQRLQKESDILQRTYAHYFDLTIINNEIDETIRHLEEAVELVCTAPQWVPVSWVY
Chain of DDR1 (human) (Q08345 whole entry, looked up): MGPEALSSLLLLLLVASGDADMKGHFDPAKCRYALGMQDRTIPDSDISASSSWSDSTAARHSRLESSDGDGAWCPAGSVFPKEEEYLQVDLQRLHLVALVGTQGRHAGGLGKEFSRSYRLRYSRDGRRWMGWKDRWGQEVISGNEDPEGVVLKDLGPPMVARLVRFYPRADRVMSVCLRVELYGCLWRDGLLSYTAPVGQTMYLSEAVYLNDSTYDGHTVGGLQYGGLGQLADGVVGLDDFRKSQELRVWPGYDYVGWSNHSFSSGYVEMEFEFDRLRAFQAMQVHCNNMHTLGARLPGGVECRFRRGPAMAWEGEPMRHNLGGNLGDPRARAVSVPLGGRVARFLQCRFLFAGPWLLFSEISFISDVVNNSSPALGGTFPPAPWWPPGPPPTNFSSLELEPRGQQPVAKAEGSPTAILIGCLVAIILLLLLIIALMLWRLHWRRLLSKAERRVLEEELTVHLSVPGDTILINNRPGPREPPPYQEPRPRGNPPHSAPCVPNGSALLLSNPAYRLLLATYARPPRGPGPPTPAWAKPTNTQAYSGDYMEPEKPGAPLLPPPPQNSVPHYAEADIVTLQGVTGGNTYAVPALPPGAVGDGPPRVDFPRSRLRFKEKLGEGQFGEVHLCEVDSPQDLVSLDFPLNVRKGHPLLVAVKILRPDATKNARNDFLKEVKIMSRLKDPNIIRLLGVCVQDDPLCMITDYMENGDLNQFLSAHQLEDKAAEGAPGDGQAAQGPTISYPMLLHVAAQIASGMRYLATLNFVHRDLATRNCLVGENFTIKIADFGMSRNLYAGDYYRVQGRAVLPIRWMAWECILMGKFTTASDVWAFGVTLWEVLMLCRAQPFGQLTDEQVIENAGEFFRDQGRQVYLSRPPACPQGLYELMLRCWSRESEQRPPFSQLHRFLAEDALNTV
Chain of LIMK2 (human) (P53671 whole entry, looked up): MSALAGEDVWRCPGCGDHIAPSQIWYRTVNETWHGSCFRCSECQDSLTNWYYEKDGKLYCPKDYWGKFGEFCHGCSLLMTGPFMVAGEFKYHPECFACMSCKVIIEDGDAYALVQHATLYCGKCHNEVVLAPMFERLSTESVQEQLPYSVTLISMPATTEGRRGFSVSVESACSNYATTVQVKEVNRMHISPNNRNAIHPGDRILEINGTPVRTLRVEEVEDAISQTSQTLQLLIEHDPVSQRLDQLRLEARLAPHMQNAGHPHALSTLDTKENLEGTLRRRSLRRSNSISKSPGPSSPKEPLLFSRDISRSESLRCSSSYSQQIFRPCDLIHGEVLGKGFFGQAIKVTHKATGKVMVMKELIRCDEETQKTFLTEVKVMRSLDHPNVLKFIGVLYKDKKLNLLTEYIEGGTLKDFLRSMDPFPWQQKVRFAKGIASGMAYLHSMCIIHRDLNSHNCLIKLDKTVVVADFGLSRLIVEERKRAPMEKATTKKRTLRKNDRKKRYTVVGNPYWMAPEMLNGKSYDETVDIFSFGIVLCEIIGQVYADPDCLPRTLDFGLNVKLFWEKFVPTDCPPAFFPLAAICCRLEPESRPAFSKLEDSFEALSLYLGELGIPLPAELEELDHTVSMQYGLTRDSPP

N#C/C(=C1/Nc2ccccc2S1)c1ccnc(NCCc2cccnc2)n1
kinase still bound, per cent of control (ACVR1 (human)): 86%
kinase still bound, per cent of control (ANKK1 (human)): 5.6%
kinase still bound, per cent of control (BRSK1 (human)): 85%
kinase still bound, per cent of control (CASK (human)): 100%
kinase still bound, per cent of control (CDKL3 (human)): 100%
kinase still bound, per cent of control (CSNK1E (human)): 60%
kinase still bound, per cent of control (DDR1 (human)): 100%
kinase still bound, per cent of control (DMPK (human)): 100%
kinase still bound, per cent of control (EIF2AK1 (human)): 100%
kinase still bound, per cent of control (EIF2AK2 (human)): 72%
kinase still bound, per cent of control (ERBB3 (human)): 36%
kinase still bound, per cent of control (FGFR3 (human)): 92%
kinase still bound, per cent of control (IKBKB (human)): 68%
kinase still bound, per cent of control (INSR (human)): 92%
kinase still bound, per cent of control (IRAK1 (human)): 6.2%
kinase still bound, per cent of control (ITK (human)): 100%
kinase still bound, per cent of control (KDR (human)): 100%
kinase still bound, per cent of control (LATS1 (human)): 100%
kinase still bound, per cent of control (LIMK2 (human)): 96%
kinase still bound, per cent of control (MAP3K12 (human)): 81%
kinase still bound, per cent of control (MAPK3 (human)): 100%
kinase still bound, per cent of control (MARK4 (human)): 100%
kinase still bound, per cent of control (MATK (human)): 100%
kinase still bound, per cent of control (MKNK1 (human)): 97%
kinase still bound, per cent of control (NEK3 (human)): 58%
kinase still bound, per cent of control (NEK4 (human)): 100%
kinase still bound, per cent of control (NEK9 (human)): 90%
kinase still bound, per cent of control (PAK1 (human)): 77%
kinase still bound, per cent of control (PAK4 (human)): 78%
kinase still bound, per cent of control (PIP5K1A (human)): 18%
kinase still bound, per cent of control (ROCK1 (human)): 37%
kinase still bound, per cent of control (RPS6KB1 (human)): 41%
kinase still bound, per cent of control (SBK1 (human)): 94%
kinase still bound, per cent of control (SRC (human)): 100%
kinase still bound, per cent of control (STK11 (human)): 77%
kinase still bound, per cent of control (STK3 (human)): 59%
kinase still bound, per cent of control (STK35 (human)): 85%
kinase still bound, per cent of control (STK38 (human)): 91%
kinase still bound, per cent of control (TAOK3 (human)): 24%
kinase still bound, per cent of control (TNK1 (human)): 46%
kinase still bound, per cent of control (VRK2 (human)): 100%

CCCS(=O)(=O)Nc1ccc(F)c(C(=O)c2c[nH]c3ncc(Cl)cc23)c1F
kinase still bound, per cent of control (ACVR1 (human)): 100%
kinase still bound, per cent of control (ANKK1 (human)): 98%
kinase still bound, per cent of control (BRSK1 (human)): 55%
kinase still bound, per cent of control (CASK (human)): 51%
kinase still bound, per cent of control (CDKL3 (human)): 100%
kinase still bound, per cent of control (CSNK1E (human)): 60%
kinase still bound, per cent of control (DDR1 (human)): 1.6%
kinase still bound, per cent of control (DMPK (human)): 100%
kinase still bound, per cent of control (EIF2AK1 (human)): 32%
kinase still bound, per cent of control (EIF2AK2 (human)): 74%
kinase still bound, per cent of control (ERBB3 (human)): 28%
kinase still bound, per cent of control (FGFR3 (human)): 71%
kinase still bound, per cent of control (IKBKB (human)): 75%
kinase still bound, per cent of control (INSR (human)): 83%
kinase still bound, per cent of control (IRAK1 (human)): 60%
kinase still bound, per cent of control (ITK (human)): 99%
kinase still bound, per cent of control (LATS1 (human)): 86%
kinase still bound, per cent of control (LIMK2 (human)): 24%
kinase still bound, per cent of control (MAP3K12 (human)): 52%
kinase still bound, per cent of control (MAPK3 (human)): 100%
kinase still bound, per cent of control (MARK4 (human)): 72%
kinase still bound, per cent of control (MATK (human)): 90%
kinase still bound, per cent of control (MKNK1 (human)): 100%
kinase still bound, per cent of control (NEK3 (human)): 69%
kinase still bound, per cent of control (NEK4 (human)): 71%
kinase still bound, per cent of control (NEK9 (human)): 66%
kinase still bound, per cent of control (PAK1 (human)): 11%
kinase still bound, per cent of control (PAK4 (human)): 57%
kinase still bound, per cent of control (PIP5K1A (human)): 100%
kinase still bound, per cent of control (ROCK1 (human)): 77%
kinase still bound, per cent of control (RPS6KB1 (human)): 58%
kinase still bound, per cent of control (SBK1 (human)): 92%
kinase still bound, per cent of control (SRC (human)): 9.2%
kinase still bound, per cent of control (STK11 (human)): 79%
kinase still bound, per cent of control (STK3 (human)): 21%
kinase still bound, per cent of control (STK35 (human)): 100%
kinase still bound, per cent of control (STK38 (human)): 78%
kinase still bound, per cent of control (TAOK3 (human)): 61%
kinase still bound, per cent of control (TNK1 (human)): 96%
kinase still bound, per cent of control (VRK2 (human)): 77%
